PubChem BioAssay AID1769 (NMMLSC, 2009)

What follows are molecules tested against glutathione S-transferase (Schistosoma japonicum GST tag binding GSH beads) (assay: GST–glutathione bead interaction interference profiling – biochemical, multiplex beads, flow cytometry, profiling panel (AID 1769;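 note: target is a GST and green fluorescent protein fusion captured on glutathione beads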)). Conditions: flow cytometry fluorescence.

First: Cc1sc2nc3c(SC(C)C(=O)O)cc(C(=O)c4ccccc4O)cn3c(=O)c2c1C (stereo not given)
Second: O=C(O)c1cc(C(=O)O)cc(-c2ccc(/C=c3/sc4nc5ccccc5n4c3=O)o2)c1
The EC50 of the first is 7.8-fold higher: 92.7 µM for the first, 11.9 µM for the second.

`O=c1c2ccccc2nc2c3ccccc3c(NCCO)nn12` and `O=c1c2ccccc2nc2c3ccccc3c(NCc3ccccn3)nn12` are within 1.5-fold of each other in EC50: 3.55 µM for the first, 3.76 µM for the second.

First: COc1ccc(N=C2S/C(=C\c3ccc(N4CCOCC4)o3)C(=O)N2CCc2c[nH]c3ccccc23)cc1
Second: O=C1/C(=C/c2ccc(N3CCOCC3)o2)SC(=Nc2ccccc2)N1CCc1c[nH]c2ccccc12
The EC50 of the first is 2.6-fold lower: 0.0269 µM for the first, 0.0697 µM for the second.

First: CC(C)(C)c1ccc(C(=O)CC(Sc2ccc(Cl)cc2)C(=O)O)cc1 (stereo not given)
Second: O=C(CSc1ccccc1)Nc1ccc(C(=O)Nc2cccc(O)c2)cc1
The EC50 of the first is 1.8-fold higher: 3.51 µM for the first, 1.9 µM for the second.

Going from `O=C(O)c1cccc(-n2cccc2/C=C2/NC(=O)N(c3ccc(Cl)cc3)C2=O)c1` to `NC1=NC(=O)/C(=C/c2cn(CCC(=O)O)nc2-c2ccc(Cl)cc2)S1`, the EC50 rises from 2.25 µM to 29.2 µM (13-fold). The first is the more potent here.

Going from `COc1ccc(Nc2nc(-c3c(C)nc4ncccn34)cs2)cc1` to `Cc1ccc(Nc2nc(-c3c(C)nc4ncccn34)cs2)cc1`, the EC50 rises from 8.39 µM to 34.8 µM (4.1-fold). The first is the more potent here.

First: NS(=O)(=O)c1ccc(Nc2nc(-c3ccc(O)cc3O)cs2)cc1
Second: O=C(Nc1cc(S(=O)(=O)Nc2ccccc2Cl)ccc1O)c1sc2cc(Cl)ccc2c1Cl
The EC50 of the first is 1.6-fold lower: 2.29 µM for the first, 3.66 µM for the second.

Going from `O=C(OCC1O[C@@H](OC(=O)c2cc(O)c(O)c(O)c2)[C@@H](OC(=O)c2cc(O)c(O)c(O)c2)[C@@H](OC(=O)c2cc(O)c(O)c(O)c2)[C@@H]1OC(=O)c1cc(O)c(O)c(O)c1)c1cc(O)c(O)c(O)c1` (stereo not given in full) to `COc1cc(/C=N/NC(=O)CN(Cc2ccccc2)S(=O)(=O)c2ccc3c(c2)OCCO3)ccc1O`, the EC50 rises from 0.951 µM to 20.3 µM (21-fold).

First: COc1cc(/C=N/Nc2ncnc3sc4c(c23)CCC4)ccc1O
Second: COc1cc(/C=N/Nc2nc(C)nc3c2cnn3-c2ccccc2)ccc1O
The EC50 of the first is 23-fold higher: 14.4 µM for the first, 0.638 µM for the second.

`O=C(Nc1cccc(-c2nnc(-c3ccco3)o2)c1)c1ccccc1` and `O=C(N/N=C(\c1ccccc1)c1ccccn1)c1cccc([N+](=O)[O-])c1` are within 1.5-fold of each other in EC50: 40.8 µM for the first, 38.1 µM for the second.

`COc1ccc(C(=O)N/N=c2\oc3ccccc3cc2C(N)=O)cc1` and `COC(=O)COc1ccc(/C=N/NC(=O)c2ccc(N(Cc3ccccc3)S(C)(=O)=O)cc2)cc1` are within 1.5-fold of each other in EC50: 4.62 µM for the first, 4.09 µM for the second.

Going from `O=C(CSc1ccc2nnc(-c3cccs3)n2n1)N1CCCC1` to `Cc1ccc2c(c1)c1nnc(SCC(=O)N3CCCc4ccccc43)nc1n2CC(=O)O`, the EC50 rises from 1.3 µM to 69.6 µM (54-fold).

First: Nc1c(C(=O)C2CC2)sc2nc(-c3cccs3)cc(C(F)(F)F)c12
Second: O=C(NCc1cccs1)c1cccn2c(=O)c3sccc3nc12
The EC50 of the first is 29-fold higher: 19.3 µM for the first, 0.664 µM for the second. The second is the more potent here.

Compared with `COc1ccc(/C=N/NC(=O)Nc2cccc3nsnc23)cc1OC`, `COc1ccc(/C=N/NC(=O)c2ccncc2)cc1Cn1nc([N+](=O)[O-])c(Br)c1C` is 14-fold higher in EC50: 0.682 µM for the first, 9.22 µM for the second.

Going from `COc1cc(/C=C2/SC(=Nc3ccc(O)cc3)NC2=O)cc(OC)c1O` to `COc1ccc(-c2cc(-c3ccc(O)cc3)nc(N)c2C#N)cc1OC`, the EC50 rises from 0.974 µM to 11.5 µM (12-fold). The first is the more potent here.

Going from `CCC1CCCCN1S(=O)(=O)c1ccc(NC(=O)CSc2ncccc2C(=O)O)cc1` (stereo not given) to `COc1ccc(/C=C(/C#N)C(=O)Nc2ccc(O)cc2)cc1C(=O)O`, the EC50 rises from 10.7 µM to 16.4 µM (1.5-fold).

Compared with `Oc1ccc2ccccc2c1/C=N/Nc1nnc(-c2ncc[nH]2)c2ccccc12`, `CCOc1cc(/C=N/NC(=O)c2cc(-c3cccnc3)nc3ccccc23)ccc1O` is 4.4-fold higher in EC50: 1.96 µM for the first, 8.65 µM for the second.

Going from `CCN(CC)c1ccc(/C=C/C(=O)c2ccc(Br)cc2)cc1` to `CCN(c1ccc(N=Cc2c(O)n(Cc3ccc(OC)cc3)c(=O)c3ccccc23)cc1)C(C)C`, the EC50 falls from 11.2 µM to 0.249 µM (45-fold).

Compared with `Cc1ccc(NC(=O)Nc2ccnc(-c3cccnc3)n2)cc1`, `O=C(NCc1cccnc1)c1cccn2c(=O)c3sccc3nc12` is 12-fold higher in EC50: 2.07 µM for the first, 25.2 µM for the second. The first is the more potent here.

First: COc1ccc2nc(C)cc(SCC(=O)N/N=C/c3ccc(O)c(O)c3)c2c1
Second: O=c1[nH]c(N/N=C/c2ccc(O)cc2)nc2ccccc12
The EC50 of the first is 2-fold higher: 15.7 µM for the first, 7.68 µM for the second. The second is the more potent here.

Compared with `Cc1ccc(/C=N/N(C)C2=NS(=O)(=O)c3ccccc32)o1`, `CN(/N=C/c1ccc(Br)o1)C1=NS(=O)(=O)c2ccccc21` is 40-fold lower in EC50: 7.42 µM for the first, 0.184 µM for the second.

First: COc1cc2[nH]c(=S)nc(NCCc3ccc(C)cc3)c2cc1OC
Second: COc1cc2c(cc1OC)-c1cc(NCc3ccccn3)nc(=O)n1CC2
The EC50 of the first is 5.9-fold lower: 0.334 µM for the first, 1.96 µM for the second.

First: COc1cc(N2CCCC2)c(OC)cc1/C=C(/C#N)c1cccc(F)c1
Second: COc1ccc(C(=O)Nc2nc3ccccc3[nH]2)cc1S(=O)(=O)N1CCOCC1
The EC50 of the first is 19-fold lower: 1.71 µM for the first, 32.7 µM for the second. The first is the more potent here.

`Cc1cccc(S(=O)(=O)c2c(N)n(/N=C/c3cccnc3)c3nc4ccccc4nc23)c1` and `COc1ccccc1CNC(=O)c1c(N)n(CCCN2CCOCC2)c2nc3ccccc3nc12` are within 1.5-fold of each other in EC50: 3.42 µM for the first, 4.43 µM for the second.

First: CSc1nc2ccc(NC(=O)C3CC(=O)N(Cc4ccco4)C3)cc2s1 (stereo not given)
Second: Oc1ccc(C2=Nn3c(nnc3-c3ccco3)SC2)cc1O
The EC50 of the first is 36-fold higher: 46.9 µM for the first, 1.29 µM for the second.

First: COc1ccc(N/C=C/c2nc(SC)nnc2C)cc1
Second: COc1cccc(N=Nc2c(N)[nH]n3c(=O)c4c(nc23)CCCC4)c1
The EC50 of the first is 2.3-fold higher: 2.76 µM for the first, 1.22 µM for the second. The second is the more potent here.

`O=C1Nc2ccc(Br)cc2C12NNc1ccccc1O2` (stereo not given) and `O=[N+]([O-])c1ccc2c(c1)c(-c1ccccc1)nc1nncn12` are within 1.5-fold of each other in EC50: 2.38 µM for the first, 3.04 µM for the second.

Compared with `COCCNC(=S)Nc1cc(OC)c(OC)cc1C#N`, `COc1ccc(-c2csc(C3=C(O)CN(C(C)C)C3=N)n2)cc1OC` is 18-fold higher in EC50: 4.9 µM for the first, 87.3 µM for the second.

`CCn1cc(C(=O)O)c(=O)c2cc(F)c(N/N=C/c3ccccc3[N+](=O)[O-])cc21` and `CCn1cc(C(=O)O)c(=O)c2cc(F)c(N/N=C/c3ccccc3)cc21` are within 1.5-fold of each other in EC50: 2.67 µM for the first, 3.88 µM for the second.

Compared with `CC(=O)N1C(=O)/C(=C2\SC(=S)N(NC(=O)c3ccc(O)cc3)C2=O)c2ccccc21`, `N#Cc1ccc2ccn(CC(=O)N3CCCc4ccccc43)c2c1` is 1.7-fold lower in EC50: 4.13 µM for the first, 2.4 µM for the second. The second is the more potent here.

Going from `Cn1c(SCCOc2ccccc2F)nc2ccccc2c1=O` to `Nc1nc2c(c(=O)[nH]1)C(c1cccc3ccccc13)C1=C(N2)c2ccccc2C1=O` (stereo not given), the EC50 falls from 4.72 µM to 2.59 µM (1.8-fold).

Compared with `Cc1cc(C)cc(N2C(=O)NC(=O)/C(=C\C=C\c3ccco3)C2=O)c1`, `CCCCn1c(O)c(/C=C/C=C/C=Nc2ccccc2)sc1=S` is 7.6-fold lower in EC50: 4.38 µM for the first, 0.576 µM for the second. The second is the more potent here.

For `O=S1(=O)N=C(N(CCO)/N=C/c2ccncc2)c2ccccc21`, the EC50 was 36.1 µM.
